{"source": "patent US7479478B2", "about": "“Human parathyroid hormone modifications, preparation and use” (The General Hospital Corporation, priority 1998, dated 2009)", "key": {"human PTH-1 receptors": {"target": "T1, human PTH-1 receptors (Homo sapiens, UniProt Q03431)", "T1 construct": "expressed in transfected cells", "T1 sequence (Q03431 27-593)": "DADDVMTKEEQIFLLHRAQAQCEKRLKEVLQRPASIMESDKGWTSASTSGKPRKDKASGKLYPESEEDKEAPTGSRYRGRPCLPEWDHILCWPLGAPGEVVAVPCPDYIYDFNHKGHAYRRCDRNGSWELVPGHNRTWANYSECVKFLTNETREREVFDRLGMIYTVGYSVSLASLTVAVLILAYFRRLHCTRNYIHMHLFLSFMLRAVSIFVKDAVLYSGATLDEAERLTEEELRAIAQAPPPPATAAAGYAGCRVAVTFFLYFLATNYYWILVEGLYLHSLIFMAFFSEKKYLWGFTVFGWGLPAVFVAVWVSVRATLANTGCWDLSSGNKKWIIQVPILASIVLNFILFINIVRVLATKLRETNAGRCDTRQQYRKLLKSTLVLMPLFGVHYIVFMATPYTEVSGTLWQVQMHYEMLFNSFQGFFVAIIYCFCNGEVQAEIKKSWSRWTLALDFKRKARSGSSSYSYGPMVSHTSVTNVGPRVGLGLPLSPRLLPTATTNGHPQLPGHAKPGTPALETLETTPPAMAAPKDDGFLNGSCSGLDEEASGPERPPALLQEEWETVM", "test": "PLC activation (total inositol polyphosphates) in transiently transfected HEK-293 cells", "type": "cell-based", "conditions": "1000 nM peptide, mean ± SEM", "experimental": "(§1) HKRK B7 or EW5 cells (32), subclones of LLC-PKI renal epithelial cells that stably express human or rat PTH-1 receptors (950,000 and 320,000 receptors/cell, respectively), were maintained under 5% CO2 in air in Dulbecco's modified essential medium containing 7% fetal bovine serum (FBS) and 1% penicillin/streptomycin (GIBCO-BRL, Grand Island, N.Y.). HEK-293 and COS-7 cells were cultured similarly, except that 10% FBS was used in the medium. Cells were seeded into 24-well plates two days before assay at a density of 2-2.5×10^5 cells/well (HKRK B7 or EW 5 cells) or 6×10^5 cells/well (in 6-well plates) (HEK-293 cells). In experiments involving HEK-293 cells, DNA transfections were performed 24 hr after plating and inositol radiolabel was added 24 hr thereafter (see below). COS-7 cell transfections were performed as previously described (Gardella, T. J., et al., Endocrinology 132(5):2024-2030 (1993))\nPLC was activated by PTH agonists in the presence of 30 mM LiCl at 37° C. for 30 min after 16 hr of labeling with [^3H]myo-inositol (3 uCi/ml) in serum-free medium containing 0.1% bovine serum albumin. […]\nTotal inositol polyphosphate produced in response to 1000 nM of the peptides shown were measured in HEK-293 cells that transiently expressed human PTH-1 receptors. Results are expressed as means±SEMs of the % of basal activity for triplicate determinations."}, "rat PTH-1 receptors": {"target": "T2, rat PTH-1 receptors (Rattus norvegicus, UniProt P25961)", "T2 construct": "expressed in transfected cells", "T2 sequence (P25961 27-591)": "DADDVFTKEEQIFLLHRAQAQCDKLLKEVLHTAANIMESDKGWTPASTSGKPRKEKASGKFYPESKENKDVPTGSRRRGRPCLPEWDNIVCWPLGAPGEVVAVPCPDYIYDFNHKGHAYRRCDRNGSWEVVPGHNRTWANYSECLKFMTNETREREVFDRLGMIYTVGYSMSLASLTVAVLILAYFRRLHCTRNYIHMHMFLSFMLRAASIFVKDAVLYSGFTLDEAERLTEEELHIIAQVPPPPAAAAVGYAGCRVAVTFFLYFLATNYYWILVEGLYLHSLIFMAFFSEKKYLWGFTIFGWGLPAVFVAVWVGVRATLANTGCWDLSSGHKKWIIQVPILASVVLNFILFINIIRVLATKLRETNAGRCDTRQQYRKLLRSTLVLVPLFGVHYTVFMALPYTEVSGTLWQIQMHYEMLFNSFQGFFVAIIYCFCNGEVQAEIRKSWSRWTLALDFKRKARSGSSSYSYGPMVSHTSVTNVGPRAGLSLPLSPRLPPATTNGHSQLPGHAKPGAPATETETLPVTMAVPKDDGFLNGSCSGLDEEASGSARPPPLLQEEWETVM", "test": "PLC activation in EW5 cells", "type": "cell-based", "conditions": "compared with human PTH-1 receptor", "experimental": "as §1\nPLC was activated by PTH agonists in the presence of 30 mM LiCl at 37° C. for 30 min after 16 hr of labeling with [^3H]myo-inositol (3 uCi/ml) in serum-free medium containing 0.1% bovine serum albumin. The reactions were stopped by rapid aspiration and addition of cold 5% TCA. Water-soluble radiolabeled inositol trisphosphate (IP3) was isolated after ether extraction by ion-exchange chromatography (Guo, J., et al., Endocrinology 136(9):3884-3891 (1995)). […]"}, "membrane-bound PKCs": {"system": "membrane-bound PKCs", "conditions": "osteoblast-like ROS 17/2 cells; Neugebauer et al. 1995; cited from earlier work"}}, "note": "No end group written: not given here."}
{"substance": "SVSEIQLMHNLGKHLNSMERVEWLRKKL-NH2 [hPTH-(1-28)]", "values": [{"measurement": "PLC Activity (% Basal)", "setting": "human PTH-1 receptors", "value": "305 ± 20", "unit": "% Basal"}, {"measurement": "signaling (PLC) via rat PTH-1 receptors, result in words", "setting": "rat PTH-1 receptors", "value": "more severely impaired"}, {"measurement": "stimulation of activity of membrane-bound PKCs", "setting": "membrane-bound PKCs", "value": "incapable of stimulating"}]}
